# Source: patent US10781184B2, “Substituted benzazinones as antibacterial compounds” (GlaxoSmithKline Intellectual Property Development Limited, priority 2015, dated 2020)
# Columns and labels:
# Assay in all cases: Minimum Inhibitory Concentration Assay (broth microdilution, CLSI)
# Type in all cases: cell-based
# K. pneumoniae 1161486 = settings: Klebsiella pneumoniae; strain 1161486, broth microdilution; read-out: K. pneumoniae 1161486 MIC
# Procedure: (§1) Methods for dilution Antimicrobial Susceptibility TestS for Bacteria that Grow Aerobically; Approved Standard-Ninth Edition; M7-A9, Vol. 32 No. 2, Clinical and Laboratory Standards Institute, Wayne, Pa.; January 2012.
# (§2) Performance Standards for Antimicrobial Susceptibility Testing; Twenty-Second Informational Supplement; M100-S22 Vol. 32 No. 3; Clinical and Laboratory Standards Institute, Wayne, Pa., January 2012.
# (§3) Broth microdilution was performed in accordance with the CLSI recommended procedures for aerobic bacteria [CLSI, 2012].
# (§4) Comparator compound stock solutions were prepared as recommended by CLSI [CLSI, 2012]. The stock solutions of novel GSK compounds were prepared at 512 mcg/mL by dissolving the compounds in dimethyl sulfoxide (DMSO) and diluting 1:10 with sterile water. The 512 mcg/mL stock was further serially diluted in the recommended broth media for the organisms being tested. Final DMSO concentration in test wells was less than 1%.
# (§5) Microtitre plates were prepared using the Microlab STAR™ (Hamilton Co., Reno, Nev.) to add media (50 μL) and the Microlab AT Plus system (Hamilton Co., Reno, Nev.) to serially dilute the compounds (final concentration range 0.125 to 128 mcg/mL) and to add inoculum. A positive growth control well containing medium and the test isolate was included on each microtitre plate. Ten microliters of the test medium from the positive growth control well was plated to determine the purity of each test isolate. A microtitre mirror reader (Cooke Instruments, Ltd., England) was used to assist in determining the microdilution MIC endpoints. The MIC was determined as the lowest concentration of compound that inhibited visible growth of the organism.
# P. aeruginosa PA01 = settings: Pseudomonas aeruginosa; strain PA01, broth microdilution; read-out: P. aeruginosa PA01 MIC
# Procedure: as §1, §2, §3, §4, §5
# E. coli 7623 = settings: Escherichia coli; strain 7623, broth microdilution; read-out: E. coli 7623 MIC
# Procedure: as §1, §2, §3, §4, §5
SMILES,MIC (K. pneumoniae 1161486) [mg/L],MIC (P. aeruginosa PA01) [mg/L],MIC (E. coli 7623) [mg/L]
"CCOc1ccc(-c2ccc3c(=O)n(CC[C@](C)(C(=O)NO)S(C)(=O)=O)cnc3c2)cc1 [Example 46, (2R)-4-[7-(4-ethoxyphenyl)-4-oxo-3,4-dihydroquinazolin-3-yl]-N-hydroxy-2-methanesulfonyl-2-methylbutanamide]",0.125,1,< 0.03
"C[C@@](CCn1cnc2cc(-c3ccc(CNC4CC4)cc3F)c(F)cc2c1=O)(C(=O)NO)S(C)(=O)=O [Example 25, (2R)-4-(7-{4-[(cyclopropylamino)methyl]-2-fluorophenyl}-6-fluoro-4-oxo-3,4-dihydroquinazolin-3-yl)-N-hydroxy-2-methanesulfonyl-2-methylbutanamide]",0.5,1,0.063
"COCCN(C)Cc1ccc(-c2ccc3c(=O)n(CC[C@](C)(C(=O)NO)S(C)(=O)=O)ccc3c2)c(F)c1 [Example 66, (2R)-4-[6-(2-fluoro-4-{[(2-methoxyethyl)(methyl)amino]methyl}phenyl)-1-oxo-1,2-dihydroisoquinolin-2-yl]-N-hydroxy-2-methanesulfonyl-2-methylbutanamide]",0.125,1,0.063
"COc1ccc(-c2ccc3c(=O)n(CC[C@](C)(C(=O)NO)S(C)(=O)=O)ccc3c2)cc1 [Example 53, (2R)—N-hydroxy-2-methanesulfonyl-4-[6-(4-methoxyphenyl)-1-oxo-1,2-dihydroisoquinolin-2-yl]-2-methylbutanamide]",0.25,0.5,< 0.03
"C[C@@](CCn1ccc2cc(-c3ccccc3)ccc2c1=O)(C(=O)NO)S(C)(=O)=O [Example 56, (2R)—N-hydroxy-2-methanesulfonyl-2-methyl-4-(1-oxo-6-phenyl-1,2-dihydroisoquinolin-2-yl)butanamide]",0.125,0.5,0.063
"CONCc1ccc(-c2ccc3c(=O)n(CC[C@](C)(C(=O)NO)S(C)(=O)=O)cnc3c2)c(F)c1 [Example 50, (2R)-4-(7-{2-fluoro-4-[(methoxyamino)methyl]phenyl}-4-oxo-3,4-dihydroquinazolin-3-yl)-N-hydroxy-2-methanesulfonyl-2-methylbutanamide]",0.5,2,0.125
"C[C@@](CCn1cnc2cc(-c3ccccc3F)ccc2c1=O)(C(=O)NO)S(C)(=O)=O [Example 8, (R)-4-(7-(2-fluorophenyl)-4-oxoquinazolin-3(4H)-yl)-N-hydroxy-2-methyl-2-(methylsulfonyl)butanamide]",0.125,0.5,≤ 0.03
"C[C@@](CCn1ccc2cc(-c3ccc(CCO)cc3)ccc2c1=O)(C(=O)NO)S(C)(=O)=O [Example 93, (2R)—N-hydroxy-4-{6-[4-(2-hydroxyethyl)phenyl]-1-oxo-1,2-dihydroisoquinolin-2-yl}-2-methanesulfonyl-2-methylbutanamide]",0.125,0.5,0.063
"Cc1c(-c2ccc(CN3CCOCC3)cc2)ccc2c(=O)n(CC[C@](C)(C(=O)NO)S(C)(=O)=O)cnc12 [Example 29, (2R)—N-hydroxy-2-methanesulfonyl-2-methyl-4-(8-methyl-7-{4-[(morpholin-4-yl)methyl]phenyl}-4-oxo-3,4-dihydroquinazolin-3-yl)butanamide]",0.5,4,0.5
"C[C@@](CCn1cnc2cc(-c3ccccc3)ccc2c1=O)(C(=O)NO)S(C)(=O)=O [Example 1, (R)—N-hydroxy-2-methyl-2-(methylsulfonyl)-4-(4-oxo-7-phenylquinazolin-3(4H)-yl)butanamide]",0.25,1,0.5
"Cc1ccc(-c2ccc3c(=O)n(CC[C@](C)(C(=O)NO)S(C)(=O)=O)nnc3c2)c(F)c1 [Example 19, (2R)-4-[7-(2-fluoro-4-methylphenyl)-4-oxo-3,4-dihydro-1,2,3-benzotriazin-3-yl]-N-hydroxy-2-methanesulfonyl-2-methylbutanamide]",0.25,8,0.125
"Cc1ccc(-c2ccc3c(=O)n(CC[C@](C)(C(=O)NO)S(C)(=O)=O)ccc3c2)cc1 [Example 54, (2R)—N-hydroxy-2-methanesulfonyl-2-methyl-4-[6-(4-methylphenyl)-1-oxo-1,2-dihydroisoquinolin-2-yl]butanamide]",0.5,1,< 0.03
"CN(C)c1ccc(-c2cc3ncn(CC[C@](C)(C(=O)NO)S(C)(=O)=O)c(=O)c3cc2F)cn1 [Example 33, (2R)-4-{7-[6-(dimethylamino)pyridin-3-yl]-6-fluoro-4-oxo-3,4-dihydroquinazolin-3-yl}-N-hydroxy-2-methanesulfonyl-2-methylbutanamide]",0.5,8,< 0.03
"C[C@@](CCn1ccc2cc(-c3ccc(C#N)cc3F)ccc2c1=O)(C(=O)NO)S(C)(=O)=O [Example 59, (2R)-4-[6-(4-cyano-2-fluorophenyl)-1-oxo-1,2-dihydroisoquinolin-2-yl]-N-hydroxy-2-methanesulfonyl-2-methylbutanamide]",0.125,0.5,0.063
"COc1ccc(-c2ccc3c(=O)n(CC[C@](C)(C(=O)NO)S(C)(=O)=O)ccc3c2)cn1.Cl [Example 60, (2R)—N-hydroxy-2-methanesulfonyl-4-[6-(6-methoxypyridin-3-yl)-1-oxo-1,2-dihydroisoquinolin-2-yl]-2-methylbutanamide]",0.5,0.5,< 0.03
"C[C@@](CCn1cc(F)c2cc(-c3ccccc3)ccc2c1=O)(C(=O)NO)S(C)(=O)=O [Example 84, (2R)-4-(4-fluoro-1-oxo-6-phenyl-1,2-dihydroisoquinolin-2-yl)-N-hydroxy-2-methanesulfonyl-2-methylbutanamide]",0.25,4,0.5
"CN(C)Cc1ccc(-c2ccc3c(=O)n(CC[C@](C)(C(=O)NO)S(C)(=O)=O)ccc3c2)c(F)c1 [Example 65, (2R)-4-(6-{4-[(dimethylamino)methyl]-2-fluorophenyl}-1-oxo-1,2-dihydroisoquinolin-2-yl)-N-hydroxy-2-methanesulfonyl-2-methylbutanamide]",0.5,4,0.25
"CONCc1ccc(-c2ccc3c(=O)n(CC[C@](C)(C(=O)NO)S(C)(=O)=O)ccc3c2)cc1 [Example 78, (2R)—N-hydroxy-2-methanesulfonyl-4-(6-{4-[(methoxyamino)methyl]phenyl}-1-oxo-1,2-dihydroisoquinolin-2-yl)-2-methylbutanamide]",0.125,4,0.063
"Cc1ccc(-c2cc3ncn(CC[C@](C)(C(=O)NO)S(C)(=O)=O)c(=O)c3cc2F)cc1 [Example 15, (2R)-4-[6-fluoro-7-(4-methylphenyl)-4-oxo-3,4-dihydroquinazolin-3-yl]-N-hydroxy-2-methanesulfonyl-2-methylbutanamide]",0.063,0.5,< 0.03
"C[C@@](CCn1cnc2cc(-c3cccc(F)c3F)ccc2c1=O)(C(=O)NO)S(C)(=O)=O [Example 6, (R)-4-(7-(2,3-difluorophenyl)-4-oxoquinazolin-3(4H)-yl)-N-hydroxy-2-methyl-2-(methylsulfonyl)butanamide]",0.125,0.5,≤ 0.032
"C[C@@](CCn1cnc2cc(-c3ccc(CCO)cc3F)c(F)cc2c1=O)(C(=O)NO)S(C)(=O)=O [Example 27, (2R)-4-{6-fluoro-7-[2-fluoro-4-(2-hydroxyethyl)phenyl]-4-oxo-3,4-dihydroquinazolin-3-yl}-N-hydroxy-2-methanesulfonyl-2-methylbutanamide]",1,2,< 0.03
"CN(C)NCc1ccc(-c2ccc3c(=O)n(CC[C@](C)(C(=O)NO)S(C)(=O)=O)ccc3c2)cc1 [Example 79, (2R)-4-(6-{4-[(2,2-dimethylhydrazin-1-yl)methyl]phenyl}-1-oxo-1,2-dihydroisoquinolin-2-yl)-N-hydroxy-2-methanesulfonyl-2-methylbutanamide]",0.5,8,0.125
"C[C@@](CCn1cnc2cc(-c3ccc(CN4CCOCC4)cc3F)c(F)cc2c1=O)(C(=O)NO)S(C)(=O)=O [Example 26, (2R)-4-(6-fluoro-7-{2-fluoro-4-[(morpholin-4-yl)methyl]phenyl}4-oxo-3,4-dihydroquinazolin-3-yl)-N-hydroxy-2-methanesulfonyl-2-methylbutanamide]",0.5,4,0.125
